Among the data in ChEMBL document CHEMBL5346923, “Novel pyridinium cationic pleuromutilin analogues overcoming bacterial multidrug resistance” (Eur J Med Chem, 2023) are MIC values, retold here.

Broadly, the MIC is the smallest concentration in the dilution series that meets the test's criterion for growth inhibition.

Type in all cases: functional
In assay [1] the test system is Klebsiella pneumoniae. Kind of assay: Antibacterial activity against Klebsiella pneumonia CMCC (B) 46117 assessed as inhibition of bacterial growth measured after 24 hrs by MH broth based assay.
The subject of assay [2] is Staphylococcus epidermidis. The assay is described as follows: Antibacterial activity against methicillin-resistant Staphylococcus epidermidis ATCC 51625 assessed as inhibition of bacterial growth measured after 24 hrs by MH broth based assay.
Assay [3] has as its system Proteus. The assay is described as follows: Antibacterial activity against Proteus CMCC (B) 49027 assessed as inhibition of bacterial growth measured after 24 hrs by MH broth based assay.
Assay [4] relates to Bacillus subtilis. The assay is described as follows: Antibacterial activity against Bacillus subtilis ATCC 6633 assessed as inhibition of bacterial growth measured after 24 hrs by MH broth based assay.
Assay [5] deals with Staphylococcus aureus. The assay is described as follows: Antibacterial activity against methicillin-resistant Staphylococcus aureus ATCC 43300 assessed as inhibition of bacterial growth measured after 24 hrs by MH broth based assay.
The subject of assay [6] is Escherichia coli. The assay is described as follows: Antibacterial activity against Escherichia coli ATCC 25922 assessed as inhibition of bacterial growth measured after 24 hrs by MH broth based assay.
In assay [7] the test system is Enterococcus. The assay is described as follows: Antibacterial activity against vancomycin-resistant Enterococcus ATCC 700221 assessed as inhibition of bacterial growth measured after 24 hrs by MH broth based assay.
In assay [8] the test system is Streptococcus pneumoniae. Kind of assay: Antibacterial activity against Streptococcus pneumoniae ATCC 49619 assessed as inhibition of bacterial growth measured after 24 hrs by MH broth based assay.
The test system of assay [9] is Escherichia coli. Kind of assay: Antibacterial activity against Escherichia coli MG1655 assessed as inhibition of bacterial growth measured after 24 hrs by MH broth based assay.
The subject of assay [10] is Staphylococcus aureus. The assay is described as follows: Antibacterial activity against Staphylococcus aureus ATCC 29213 assessed as inhibition of bacterial growth measured after 24 hrs by MH broth based assay.
Assay [11] concerns Escherichia coli. Kind of assay: Antibacterial activity against Escherichia coli MG1655 harbouring acrB gene assessed as inhibition of bacterial growth measured after 24 hrs by MH broth based assay.

`C=CC[n+]1ccc(SCC(=O)O[C@@H]2C[C@@](C)(C=C)[C@@H](O)[C@H](C)[C@]34CCC(=O)[C@H]3[C@@]2(C)[C@H](C)CC4)cc1.[I-]`: the MIC was 64 µg/mL in assay [1]; 0.25 µg/mL in assay [2]; more than 64 µg/mL in assay [3]; 64 µg/mL in assay [4]; 1 µg/mL in assay [5]; 64 µg/mL in [6]. Also, the MIC in [7] stood at 32 µg/mL; in assay [8] it was 0.25 µg/mL; in assay [9] it was 64 µg/mL; in assay [10], 0.5 µg/mL; in [11], 1 µg/mL.

Turning to `C=C[C@]1(C)C[C@@H](OC(=O)CSc2cc[n+](CCCCCCCC(=O)O)cc2)[C@]2(C)[C@H](C)CC[C@]3(CCC(=O)[C@H]32)[C@@H](C)[C@@H]1O.[I-]`, the MIC in assay [1] is more than 64 µg/mL; in [2] it was 4 µg/mL; in [3] it was more than 64 µg/mL; in assay [4], more than 64 µg/mL; in [5], 8 µg/mL; in assay [6], more than 64 µg/mL. Moreover, the MIC in [7] was 64 µg/mL; in assay [8], 2 µg/mL; in assay [9], more than 64 µg/mL; in assay [10] it was 8 µg/mL; in assay [11], 32 µg/mL.

For `C=C[C@]1(C)C[C@@H](OC(=O)CSc2cc[n+](COC)cc2)[C@]2(C)[C@H](C)CC[C@]3(CCC(=O)[C@H]32)[C@@H](C)[C@@H]1O.[I-]`, the MIC in assay [1] is 64 µg/mL; in assay [2], 0.5 µg/mL; in assay [3], more than 64 µg/mL; in assay [4], 64 µg/mL; in assay [5], 0.25 µg/mL; in assay [6], 64 µg/mL. For the same compound, the MIC in assay [7] came out at 32 µg/mL; in [8], 0.25 µg/mL; in [9], 64 µg/mL; in [10], 0.25 µg/mL; in assay [11], 1 µg/mL.

In the case of `C=C[C@]1(C)C[C@@H](OC(=O)CSc2cc[n+](CCCC)cc2)[C@]2(C)[C@H](C)CC[C@]3(CCC(=O)[C@H]32)[C@@H](C)[C@@H]1O.[I-]`, the MIC in [1] was 16 µg/mL; in [2] it was 0.063 µg/mL; in assay [3] it was more than 64 µg/mL; in [4], 64 µg/mL; in [5] it was 0.25 µg/mL; in [6], 64 µg/mL. Moreover, the MIC in [7] is 16 µg/mL; in assay [8], less than 0.031 µg/mL; in assay [9], 64 µg/mL; in [10] it was 0.25 µg/mL; in assay [11], 0.5 µg/mL.

As for `C=C[C@]1(C)C[C@@H](OC(=O)CSc2cc[n+](CC(C)C)cc2)[C@]2(C)[C@H](C)CC[C@]3(CCC(=O)[C@H]32)[C@@H](C)[C@@H]1O.[I-]`, the MIC in assay [1] was 64 µg/mL; in assay [2], 0.5 µg/mL; in assay [3], more than 64 µg/mL; in [4], 64 µg/mL; in [5] it was 0.5 µg/mL; in assay [6], 64 µg/mL. Moreover, the MIC in [7] was 64 µg/mL; in assay [8], 0.25 µg/mL; in [9], 64 µg/mL; in assay [10] it was 0.5 µg/mL; in assay [11], 2 µg/mL.

On to `C=C[C@]1(C)C[C@@H](OC(=O)CSc2cc[n+](CC(=O)NCCc3ccc(O)cc3)cc2)[C@]2(C)[C@H](C)CC[C@]3(CCC(=O)[C@H]32)[C@@H](C)[C@@H]1O.[I-]`, for which the MIC in assay [1] was 32 µg/mL; in assay [2], 0.25 µg/mL; in assay [3], more than 64 µg/mL; in [4] it was more than 64 µg/mL; in [5] it was 0.5 µg/mL; in [6], 64 µg/mL. Besides, the MIC turned out to be 64 µg/mL in assay [7]; 0.25 µg/mL in assay [8]; 64 µg/mL in assay [9]; 0.5 µg/mL in assay [10]; 1 µg/mL in assay [11].

As to `C=C[C@]1(C)C[C@@H](OC(=O)CSc2cc[n+](CC(=O)N3CCS(=O)(=O)CC3)cc2)[C@]2(C)[C@H](C)CC[C@]3(CCC(=O)[C@H]32)[C@@H](C)[C@@H]1O.[I-]`, the MIC in [1] is more than 64 µg/mL; in [2], 4 µg/mL; in assay [3], more than 64 µg/mL; in assay [4], more than 64 µg/mL; in [5], 8 µg/mL; in assay [6], more than 64 µg/mL. In addition, the MIC in assay [7] is 64 µg/mL; in assay [8] it was 2 µg/mL; in assay [9] it was 32 µg/mL; in assay [10], 8 µg/mL; in [11] it was 16 µg/mL.

As to `C=C[C@]1(C)C[C@@H](OC(=O)CSc2cc[n+](CC(=O)N3CCCCC3)cc2)[C@]2(C)[C@H](C)CC[C@]3(CCC(=O)[C@H]32)[C@@H](C)[C@@H]1O.[I-]`, the MIC in assay [1] was 64 µg/mL; in assay [2], 0.125 µg/mL; in [3], more than 64 µg/mL; in assay [4] it was more than 64 µg/mL; in assay [5], 0.25 µg/mL; in assay [6] it was 64 µg/mL. Moreover, the MIC in [7] came out at 64 µg/mL; in assay [8], 0.125 µg/mL; in assay [9], 64 µg/mL; in [10] it was 0.25 µg/mL; in assay [11], 2 µg/mL.

`C=CCC[n+]1ccc(SCC(=O)O[C@@H]2C[C@@](C)(C=C)[C@@H](O)[C@H](C)[C@]34CCC(=O)[C@H]3[C@@]2(C)[C@H](C)CC4)cc1.[I-]`: the MIC in assay [1] turned out to be 16 µg/mL; in assay [2], 0.25 µg/mL; in assay [3], 64 µg/mL; in assay [4] it was 64 µg/mL; in [5], 0.25 µg/mL; in [6] it was 64 µg/mL. For the same compound, the MIC in [7] turned out to be 16 µg/mL; in [8], 0.125 µg/mL; in assay [9] it was 32 µg/mL; in [10] it was 0.25 µg/mL; in assay [11], 0.25 µg/mL.

In the case of `C=C[C@]1(C)C[C@@H](OC(=O)CSc2cc[n+](CC3CCCO3)cc2)[C@]2(C)[C@H](C)CC[C@]3(CCC(=O)[C@H]32)[C@@H](C)[C@@H]1O.[I-]` (stereo not given in full), the MIC in [1] was 64 µg/mL; in assay [2], 0.25 µg/mL; in [3] it was more than 64 µg/mL; in assay [4], 64 µg/mL; in assay [5], 1 µg/mL; in assay [6], 64 µg/mL. The MIC amounted to 64 µg/mL in [7]; 0.125 µg/mL in assay [8]; 64 µg/mL in assay [9]; 1 µg/mL in [10]; 2 µg/mL in assay [11].

In the case of `C=C[C@]1(C)C[C@@H](OC(=O)CSc2cc[n+](CC(=O)N(Cc3ccccc3)Cc3ccccc3)cc2)[C@]2(C)[C@H](C)CC[C@]3(CCC(=O)[C@H]32)[C@@H](C)[C@@H]1O.[I-]`, the MIC in assay [1] was 32 µg/mL; in assay [2] it was 0.063 µg/mL; in [3], more than 64 µg/mL; in [4], 16 µg/mL; in assay [5], 0.25 µg/mL; in assay [6], 64 µg/mL. Besides, the MIC in [7] is 64 µg/mL; in [8] it was less than 0.031 µg/mL; in assay [9], 64 µg/mL; in assay [10] it was 0.25 µg/mL; in assay [11], 4 µg/mL.

On to `C=C[C@]1(C)C[C@@H](OC(=O)CSc2cc[n+](CCCCC(=O)O)cc2)[C@]2(C)[C@H](C)CC[C@]3(CCC(=O)[C@H]32)[C@@H](C)[C@@H]1O.[I-]`, for which the MIC in [1] was more than 64 µg/mL; in [2] it was 4 µg/mL; in assay [3], more than 64 µg/mL; in assay [4] it was more than 64 µg/mL; in assay [5], 16 µg/mL; in assay [6] it was more than 64 µg/mL. Further, the MIC in [7] stood at 64 µg/mL; in [8], 2 µg/mL; in [9], 64 µg/mL; in assay [10], 8 µg/mL; in assay [11], 16 µg/mL.

As for `C=C[C@]1(C)C[C@@H](OC(=O)CSc2cc[n+](CCCCCCCCCCCC)cc2)[C@]2(C)[C@H](C)CC[C@]3(CCC(=O)[C@H]32)[C@@H](C)[C@@H]1O.[I-]`, the MIC in assay [1] came to 32 µg/mL; in assay [2], 8 µg/mL; in [3], 64 µg/mL; in [4], 8 µg/mL; in [5], 8 µg/mL; in assay [6] it was 32 µg/mL. Further, the MIC is 16 µg/mL in [7]; 4 µg/mL in [8]; 32 µg/mL in assay [9]; 8 µg/mL in assay [10]; 8 µg/mL in assay [11].

As to `C=C[C@]1(C)C[C@@H](OC(=O)CSc2cc[n+](CCCCCCCCCCC(=O)O)cc2)[C@]2(C)[C@H](C)CC[C@]3(CCC(=O)[C@H]32)[C@@H](C)[C@@H]1O.[I-]`, the MIC turned out to be 64 µg/mL in [1]; 2 µg/mL in assay [2]; 64 µg/mL in assay [3]; 64 µg/mL in [4]; 0.5 µg/mL in assay [5]; 64 µg/mL in [6]. Further, the MIC in assay [7] was 64 µg/mL; in [8] it was 0.5 µg/mL; in [9] it was 64 µg/mL; in assay [10] it was 0.5 µg/mL; in assay [11], 32 µg/mL.

For the compound `C=C[C@]1(C)C[C@@H](OC(=O)CSc2cc[n+](Cc3ccc(-c4ccccc4C#N)cc3)cc2)[C@]2(C)[C@H](C)CC[C@]3(CCC(=O)[C@H]32)[C@@H](C)[C@@H]1O.[I-]`, the MIC was 32 µg/mL in [1]; 0.125 µg/mL in assay [2]; more than 64 µg/mL in assay [3]; 32 µg/mL in assay [4]; 1 µg/mL in assay [5]; 64 µg/mL in assay [6]. For the same compound, the MIC was 32 µg/mL in assay [7]; less than 0.031 µg/mL in [8]; 64 µg/mL in [9]; 1 µg/mL in assay [10]; 8 µg/mL in [11].
